Test results reported in patent US20130005696A1, “BUFADIENOLIDE DERIVATIVES, PREPARING PROCESS THEREOF, COMPOSITION COMPRISING THE SAME AND THE USE THEREOF” (priority 2011, published 2013).
Read-outs that look alike come from different tables or passages of the source.

Legend:
[1] = tested on: Jurkat human leukemic cell line; assay: In vitro antitumor activity assay (SRB), Jurkat; type: cell-based; details: 72 h, Table 3
Text: (§1) HeLa human cervical carcinoma cell line, A-549 human non-small cell lung carcinoma cell line, NCI-H2228 human lung carcinoma cell line, NCI-H460 human lung carcinoma cell line, MDA-MB-231 human breast carcinoma cell line, MCF-7 human breast carcinoma cell line, Bel-7402 human hepatic carcinoma cell line, Hep3B human hepatic carcinoma cell line, QGY-7703 human hepatic carcinoma cell line, MV-4-11 human leukemic cell line, DAUDI human leukemic cell line, Jurkat human leukemic cell line, A498 renal carcinoma cell line, LoVo human colon carcinoma cell line, HCT1116 human colon carcinoma cell line, A431 human skin carcinoma cell line, PANC-1 human pancreatic carcinoma cell line, U87-MG human brain carcinoma cell line, SH-SY5Y human brain carcinoma cell line, RPMI-8226 human bone carcinoma cell line, HT1080 human fibrosarcoma cell line, PC-3 human prostatic carcinoma cell line, AGS human gastric adenocarcinoma cell line, and BGC-823 human gastric adenocarcinoma cell line were purchased from the Cell Bank of the Chinese Academy of Sciences.
(§2) The positive control is bufalin (formulated according to the common method), its purity is 98% or more by HPLC-UV and its structure is identified by NMR. The compounds to be tested and the positive control were diluted with normal saline with a concentration gradient of 10^−4 M, 10^−5 M, 10^−6 M, 10^−7 M and 10^−8 M.
(§3) According to cell growth rate, tumor cells in the log phase of growth were seeded into 96-well culture plates at 100 μL per well, and allowed to attach for 24 hours, followed by addition of a test compound or positive control at 10 μL per well. For each concentration, the test was carried out in triplicate wells. […] Finally, Tris solution was added at 150 μL per well, and the absorbance (A) was measured at a wavelength of 515 nm using a microplate reader. The growth inhibition on tumor cell proliferation was calculated according to the following equation:
(§4) Growth Inhibition (%)=[(Absorbance of negative control−Absorbance of blank)−(Absorbance of sample−Absorbance of blank)]/(Absorbance of negative control−Absorbance of blank)×100% […]

[2] = tested on: HT1080 human fibrosarcoma cell line; assay: In vitro antitumor activity assay (SRB), HT1080; type: cell-based; details: HT1080, 72 h, Table 3
Text: as §1, §2, §3, §4

[3] = tested on: NCI-H460 human lung carcinoma cell line; assay: In vitro antitumor activity assay (SRB), NCI-H460; type: cell-based; details: NCI-H460, 72 h, Table 3
Text: as §1, §2, §3, §4

[4] = tested on: NCI-H2228 human lung carcinoma cell line; assay: In vitro antitumor activity assay (SRB), NCI-H2228; type: cell-based; details: NCI-H2228, 72 h, Table 3
Text: as §1, §2, §3, §4

[5] = tested on: AGS human gastric adenocarcinoma cell line; assay: In vitro antitumor activity assay (SRB), AGS; type: cell-based; details: 72 h, Table 3
Text: as §1, §2, §3, §4

[6] = tested on: MDA-MB-231 human breast carcinoma cell line; assay: In vitro antitumor activity assay (SRB), MDA-MB-231; type: cell-based; details: MDA-MB-231, 72 h, Table 3
Text: as §1, §2, §3, §4

[7] = tested on: HepG2 human-derived tumor cell line; assay: In vitro antitumor activity assay (SRB), HepG2; type: cell-based; details: HepG2, 72 h, Table 3
[8] = tested on: Hep3B human hepatic carcinoma cell line; assay: In vitro antitumor activity assay (SRB), Hep3B; type: cell-based; details: 72 h, Table 3
Text: as §1, §2, §3, §4

[9] = tested on: A498 renal carcinoma cell line; assay: In vitro antitumor activity assay (SRB), A498; type: cell-based, human; details: A498, 72 h, Table 3
Text: as §1, §2, §3, §4

[10] = tested on: HCT-116 human-derived tumor cell line; assay: In vitro antitumor activity assay (SRB), HCT-116; type: cell-based; details: HCT-116, 72 h, Table 3
Text: as §1, §2, §3, §4

[11] = tested on: RPMI-8226 human bone carcinoma cell line; assay: In vitro antitumor activity assay (SRB), RPMI8226; type: cell-based; details: RPMI8226, 72 h, Table 3
Text: as §1, §2, §3, §4

[12] = In vivo acute toxicity assay in mouse; details: for LD50: in vivo, ip
Experimental: Sample Name: bufalin, II1E-01.HCl
35.8 mg of II1E-01.HCl was weighted, added with 1.78 mL of anhydrous ethanol, and dissolved completely under ultrasonication. 16.02 mL of 5% glucose injection was added and agitated homogeneously. The solution was filtered with a 0.2 μm filtration membrane to obtain a stock solution with a concentration of 2 mg/mL, wherein the content of ethanol is 10%. The highest dosage is 20 mg/kg, calculated based on the administration volume of 0.1 mL/10 g body weight of mouse.

[13] = tested on: HeLa human cervical carcinoma cell line; assay: In vitro antitumor activity assay (SRB), HeLa; type: cell-based; details: read-out: IC50, inhibitory activity on cell proliferation of HeLa cell line
Procedure, shortened: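 Log-phase cells attached 24 h, then exposed in triplicate to compounds (10 μM–0.1 nM, saline vehicle) for 72 h at 37 °C, 5% CO2 in RPMI-1640. After TCA fixation and SRB staining, A515 gave % growth inhibition versus saline control (blank-corrected), and IC50 was fitted from the curve.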

`C[C@]12CC[C@H](OC(=O)NC3CCNCC3)C[C@H]1CC[C@@H]1[C@@H]2CC[C@]2(C)[C@@H](c3ccc(=O)oc3)CC[C@]12O.Cl` [II1E-01•HCl] showed an IC50 [1] of 0.67 ± 0.1 nM, an IC50 [2] of 2.34 ± 0.1 nM and an IC50 [3] of 0.67 ± 0.03 nM. The IC50 [4] was 1.62 ± 0.5 nM, the IC50 [5] was 9.35 ± 0.53 nM and the IC50 [6] was 7.31 ± 0.21 nM. The IC50 [7] was 0.33 ± 0.02 nM, the IC50 [8] was over 1000 nM and the IC50 [9] was 0.37 ± 0.05 nM. The IC50 [10] was 2.13 ± 0.28 nM, the IC50 [11] was 1.71 ± 0.03 nM and the “LD50 of intraperitoneal administration, female mouse” value ([12]; intraperitoneal, female mouse) was “about 18.21 mg/kg”. The “LD50 of intraperitoneal administration, male mouse” value ([12]; intraperitoneal, male mouse) was “about 14.75 mg/kg”, the “LD50 of intravenous administration, female mouse” value ([12]; intravenous, female mouse) was “about 16.51 mg/kg” and the “LD50 of intravenous administration, male mouse” value ([12]; intravenous, male mouse) was “about 13.60 mg/kg”. For the same compound, the “in vivo acute toxicity in mouse compared with bufalin, in words” value ([12]; mouse) was “lower in vivo acute toxicity in mouse than bufalin”.

For `C[C@]12CC[C@H](O)C[C@H]1CC[C@@H]1[C@@H]2CC[C@]2(C)[C@@H](c3ccc(=O)oc3)CC[C@]12O` [bufalin, reference compound], the IC50 [13] was 7.27 nM, the IC50 ([1]; Homo sapiens) was 8.79 ± 2.48 nM and the IC50 ([2]; Homo sapiens, HT-1080) was 11.3 ± 0.38 nM. For the same compound, the IC50 ([3]; Homo sapiens) was 6.89 ± 0.87 nM, the IC50 ([4]; Homo sapiens) was 16.1 ± 2.51 nM and the IC50 ([5]; Homo sapiens) was 51.8 ± 1.34 nM. For the same compound, the IC50 ([6]; Homo sapiens) was 28.7 ± 1.66 nM, the IC50 ([7]; Homo sapiens) was 6.02 ± 0.71 nM and the IC50 ([8]; Homo sapiens) was over 1000 nM. For the same compound, the IC50 ([9]; Homo sapiens) was 6.41 ± 0.75 nM, the IC50 ([10]; Homo sapiens) was 9.69 ± 0.64 nM and the IC50 ([11]; Homo sapiens, RPMI-8226) was 13.5 ± 0.82 nM. For the same compound, the LD50 ([12]; intraperitoneal, female mouse, read-out: LD50 of intraperitoneal administration, female mouse) was about 2.8 mg/kg and the LD50 ([12]; intraperitoneal, male mouse, read-out: LD50 of intraperitoneal administration, male mouse) was about 2.4 mg/kg.
